Literature values in patent US10544223B2, “Combination therapy with an anti-axl antibody-drug conjugate” (ADC THERAPEUTICS SA, priority 2017, dated 2020).

How the values were obtained:
[1] = test system: DNA repair genes; settings: inhibition of AXL
[2] = test system: AXL; settings: incubation of tumor cells with MEKi
[3] = test system: ERCC1 transcription
[4] = test system: advanced melanoma; settings: phase III trials, advanced melanoma patients

In the case of CN1CCN(Cc2ccc(Nc3ncc(Cl)c(Nc4ccccc4S(=O)(=O)N(C)C)n3)cc2)CC1 [TP0903], the “efficiency of the homologous recombination repair machinery” value [1] is listed as “diminish the efficiency of the homologous recombination repair machinery” and the “expression of DNA repair genes” value [1] is listed as “decrease expression of DNA repair genes”.
For N#CC(=C(/N)Sc1ccccc1N)/C(C#N)=C(\N)Sc1ccccc1N [U0126], the “accumulation of AXL on the membrane of tumor cells” value [2] is listed as “induced a strong accumulation of AXL”.
In the case of O=C(NOC[C@H](O)CO)c1ccc(F)c(F)c1Nc1ccc(I)cc1F [PD325901], the “accumulation of AXL on the membrane of tumor cells” value [2] is listed as “induced a strong accumulation of AXL”.
In the case of Nc1nc(Nc2ccc3c(c2)CC[C@@H](N2CCCC2)CC3)nn1-c1cc2c(nn1)-c1ccccc1CCC2 [BGB324], the “efficiency of the homologous recombination repair machinery” value [1] is given as “diminish the efficiency of the homologous recombination repair machinery” and the “expression of DNA repair genes” value [1] is given as “decrease expression of DNA repair genes”.
In the case of Fludarabine, the ERCC1 transcription [3] is given as “suppress ERCC1 transcription”.
In the case of tremelimumab: anti-CTLA4 antibody, the “overall survival compared to the standard of care (temozolomide or dacarbazine)” value [4] is given as “did not significantly increase the overall survival”.
